Our source for the Ke values is ChEMBL document CHEMBL1250462, “Affinity of aporphines for the human 5-HT2A receptor: insights from homology modeling and molecular docking studies” (Bioorg Med Chem, 2010).

The target in this test is 5-hydroxytryptamine receptor 2A (Homo sapiens) (UniProt P28223).

Each structure is given as a SMILES string.

Sequence of 5-hydroxytryptamine receptor 2A (Homo sapiens) (P28223 whole entry): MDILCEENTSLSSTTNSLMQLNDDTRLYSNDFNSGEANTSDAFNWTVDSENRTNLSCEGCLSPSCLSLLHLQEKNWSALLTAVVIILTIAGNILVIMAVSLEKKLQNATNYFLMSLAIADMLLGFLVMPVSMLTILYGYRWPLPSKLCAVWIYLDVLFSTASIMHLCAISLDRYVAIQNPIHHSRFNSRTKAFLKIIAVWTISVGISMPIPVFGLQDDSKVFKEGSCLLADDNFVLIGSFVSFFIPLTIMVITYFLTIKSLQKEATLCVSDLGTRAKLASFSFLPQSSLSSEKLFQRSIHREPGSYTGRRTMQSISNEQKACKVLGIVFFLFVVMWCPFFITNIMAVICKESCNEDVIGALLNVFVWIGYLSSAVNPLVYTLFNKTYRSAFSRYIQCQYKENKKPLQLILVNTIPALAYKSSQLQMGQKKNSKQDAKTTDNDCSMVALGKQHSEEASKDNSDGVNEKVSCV
Description: Binding affinity to 5HT2A

`COc1cc2c3c(c1OC)-c1cc4c(cc1CC3N(S(C)(=O)=O)CC2)OCO4` (stereo not drawn) registered a Ke greater than 10 µM.

For the molecule `COc1cc2c3c(c1OC)-c1cc4c(cc1CC3N(C(C)=O)CC2)OCO4` (stereo not drawn), the Ke is greater than 10 µM.

Consider `COc1cc2c3c(c1OCc1ccccc1)-c1cc4c(cc1CC3N(C)CC2)OCO4` (stereo not drawn), for which the Ke is 4.6 µM.
